# Measurements as given in patent US8557853B2, “Aryl fluoroethyl ureas acting as alpha 2 adrenergic agents” (Allergan, Inc., priority 2007, dated 2013).
# What was measured:
# Type in all cases: cell-based
# alpha2B receptor = biological target: T1, alpha2B receptor (Homo sapiens, UniProt P18089); assay: RSAT (Receptor Selection and Amplification Technology) assay, alpha 2B; details: for EC50: RSAT, transfected NIH-3T3 cells, "not active" = not active at concentrations less than 10 micromolar, read-out: Alpha 2B EC50; for Alpha 2B IA: intrinsic activity: ratio of maximal effect of drug to maximal effect of standard full agonist brimonidine (UK14304)
# T1 construct: expressed in transfected cells; host or cells: NIH-3T3 cells
# T1 sequence (P18089 1-450): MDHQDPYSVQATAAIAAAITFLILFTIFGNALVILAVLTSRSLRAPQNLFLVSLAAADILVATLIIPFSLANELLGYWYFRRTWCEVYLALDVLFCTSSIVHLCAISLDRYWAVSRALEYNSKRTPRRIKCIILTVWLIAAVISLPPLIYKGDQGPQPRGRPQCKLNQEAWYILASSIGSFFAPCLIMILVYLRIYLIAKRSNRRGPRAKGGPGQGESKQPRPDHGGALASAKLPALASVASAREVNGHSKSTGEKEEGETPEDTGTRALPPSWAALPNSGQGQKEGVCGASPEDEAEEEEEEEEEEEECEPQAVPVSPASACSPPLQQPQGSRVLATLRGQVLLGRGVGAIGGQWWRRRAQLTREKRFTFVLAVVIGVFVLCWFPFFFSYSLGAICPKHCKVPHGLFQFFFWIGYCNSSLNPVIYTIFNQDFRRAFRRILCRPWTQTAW
# Description: (§1) The RSAT assay measures a receptor-mediated loss of contact inhibition that results in selective proliferation of receptor-containing cells in a mixed population of confluent cells. The increase in cell number is assessed with an appropriate transfected marker gene such as ∃-galactosidase, the activity of which can be easily measured in a 96-well format. Receptors that activate the G protein, Gq, elicit this response. Alpha 2 receptors, which normally couple to Gi, activate the RSAT response when coexpressed with a hybrid Gq protein that has a Gi receptor recognition domain, called Gq/i5.
# (§2) NIH-3T3 cells are plated at a density of 2×10^6 cells in 15 cm dishes and maintained in Dulbecco's modified Eagle's medium supplemented with 10% calf serum. One day later, cells are cotransfected by calcium phosphate precipitation with mammalian expression plasmids encoding p-SV-β-galactosidase (5-10 μg), receptor (1-2 μg) and G protein (1-2 μg). 40 μg salmon sperm DNA may also be included in the transfection mixture. Fresh media is added on the following day and 1-2 days later, cells are harvested and frozen in 50 assay aliquots. Cells are thawed and 100 μl added to 100 μl aliquots of various concentrations of drugs in triplicate in 96-well dishes. Incubations continue 72-96 hr at 37° C. After washing with phosphate-buffered saline, ∃-galactosidase enzyme activity is determined by adding 200 μl of the chromogenic substrate (consisting of 3.5 mM o-nitrophenyl-β-D-galactopyranoside and 0.5% nonidet P-40 in phosphate buffered saline), incubating overnight at 30° C. and measuring optical density at 420 nm. The absorbance is a measure of enzyme activity, which depends on cell number and reflects a receptor-mediated cell proliferation. The efficacy or intrinsic activity is calculated as a ratio of the maximal effect of the drug to the maximal effect of a standard full agonist for each receptor subtype. Brimonidine, also called UK14304, the chemical structure of which is shown below, is used as the standard agonist for the alpha2A, alpha2B and alpha2C receptors.
# alpha2A receptor = biological target: T2, alpha2A receptor (Homo sapiens, UniProt P08913); assay: RSAT (Receptor Selection and Amplification Technology) assay, alpha 2A
# T2 construct: expressed in transfected cells; host or cells: NIH-3T3 cells
# T2 sequence (P08913 1-465): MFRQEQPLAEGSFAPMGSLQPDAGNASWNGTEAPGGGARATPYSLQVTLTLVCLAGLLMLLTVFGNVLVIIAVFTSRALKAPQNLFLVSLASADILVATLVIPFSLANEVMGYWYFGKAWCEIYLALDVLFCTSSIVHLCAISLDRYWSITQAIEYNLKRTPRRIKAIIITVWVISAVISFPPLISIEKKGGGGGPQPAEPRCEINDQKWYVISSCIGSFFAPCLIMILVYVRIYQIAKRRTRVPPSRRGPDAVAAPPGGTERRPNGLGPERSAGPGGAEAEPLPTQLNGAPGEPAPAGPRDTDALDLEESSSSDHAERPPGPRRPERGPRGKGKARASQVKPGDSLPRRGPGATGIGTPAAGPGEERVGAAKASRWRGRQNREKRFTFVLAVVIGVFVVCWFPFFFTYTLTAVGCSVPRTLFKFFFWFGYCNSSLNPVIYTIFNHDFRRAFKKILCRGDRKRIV
# Text: (§3) The aryl fluoroethyl ureas of the invention are agonists of alpha2 adrenergic receptors. […] Al, 1995, Pharmacol. Toxicol. 76, pp. 308-311 (incorporated herein by reference) and is also described below. Another reference pertinent to this assay is Conklin et al. (1993) Nature 363:274-6, Receptor Selection and Amplification Technology (RSAT) assay, also incorporated herein by reference.
# as §1, §2
# (§4) The results of the RSAT assay with several exemplary compounds of the invention are disclosed in Table 1 below together with the chemical structures of these compounds. “Not active” means the compounds are not active at concentrations less than 10 micromolar.
# alpha2C receptor = biological target: T3, alpha2C receptor (Homo sapiens, UniProt P18825); assay: RSAT (Receptor Selection and Amplification Technology) assay, alpha 2C
# T3 construct: expressed in transfected cells; host or cells: NIH-3T3 cells
# T3 sequence (P18825 1-462): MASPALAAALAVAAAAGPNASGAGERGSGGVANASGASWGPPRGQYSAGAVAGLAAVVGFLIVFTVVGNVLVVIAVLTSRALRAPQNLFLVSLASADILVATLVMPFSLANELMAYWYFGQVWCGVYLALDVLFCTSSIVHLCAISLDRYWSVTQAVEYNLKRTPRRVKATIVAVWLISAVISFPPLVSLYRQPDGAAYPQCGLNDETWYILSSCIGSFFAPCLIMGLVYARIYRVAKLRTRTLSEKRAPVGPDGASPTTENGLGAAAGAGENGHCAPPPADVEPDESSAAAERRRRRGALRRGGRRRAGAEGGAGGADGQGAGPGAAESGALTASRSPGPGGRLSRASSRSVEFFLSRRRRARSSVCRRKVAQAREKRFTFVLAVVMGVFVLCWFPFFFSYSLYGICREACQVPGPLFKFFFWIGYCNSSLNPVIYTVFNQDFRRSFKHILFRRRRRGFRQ
# Text: as §3, §1, §2, §4
# [1] = RSAT, transfected NIH-3T3 cells, "not active" = not active at concentrations less than 10 micromolar
# [2] = intrinsic activity: ratio of maximal effect of drug to maximal effect of standard full agonist brimonidine (UK14304)
EC50 (alpha2B receptor),Alpha 2B IA (alpha2B receptor),EC50 (alpha2A receptor; [1]),Alpha 2A IA (alpha2A receptor; [2]),Alpha 2C EC50 (alpha2C receptor; [1]),Alpha 2A EC50 (alpha2A receptor; [1]),EC50 (alpha2C receptor; [1]),Alpha 2C IA (alpha2C receptor; [2]),Compound
2390 nM,0.49,4.2 µM,0.30,not active,–,–,–,"Cc1nn(C)c(C)c1CNC(=O)NCCF [Compound 43, 1-(2-fluoro-ethyl)-3-(1,3,5-trimethyl-1H-pyrazol-4-ylmethyl)-urea]"
2280 nM,0.67,–,–,–,not active,4.16 µM,0.31,"Cc1cc(CNC(=O)NCCF)nn1C [Compound 44, 1-(1,5-dimethyl-1H-pyrazol-3-ylmethyl)-3-(2-fluoro-ethyl)-urea]"
